Patent US7635706B2, “5HT4-antagonistic 4-(aminomethyl)-piperidine benzamides” (Janssen Pharmaceutica NV, priority 2003, dated 2009)
pIC50: −log10 of the molar value.

Target: T1, h5-HT4b (Homo sapiens, UniProt Q13639)
T1 construct: expressed in transfected cells; host or cells: HEK 293 (clone 9), membrane preparation
Test: 5HT4 antagonism: [3H]GR113808 binding to membranes of h5-HT4b-HEK 293 clone 9 cells
Conditions: [3H]GR113808 0.1 nM, h5-HT4b-HEK 293 membranes, 30 min at 25° C.
Method: h5-HT4b-HEK 293 clone 9 cells were cultured in 150 mm Petri dishes and washed twice with cold PBS. The cells were then scraped from the plates and suspended in 50 mM Tris-HCl buffer, pH 7.4 and harvested by centrifugation at 23,500 rpm for 10 minutes. The pellet was resuspended in 5 mM Tris-HCl, pH 7.4 and homogenized with an Ultra Turrax homogenizer. The membranes were collected by centrifugation at 30,000 rpm for 20 min, resuspended in 50 mM Tris-HCl pH 7.4 and stored at −80° C. For the experiment, assay mixtures (0.5 ml) contained 50 μl of the tritiated ligand (5-HT4 antagonist [^3H]GR113808 0.1 nM) and 0.4 ml membrane preparation (15 μg protein/ml). 50 μl of 10% DMSO was added for total binding. 50 μl of 1 μM of (+)-trans-(1-butyl-3-hydroxy4-piperidinyl)methyl 8-amino-7-chloro-2,3-dihydro-1,4-benzodioxin-5-carboxylate (a proprietary 5HT4 agonist of Janssen Pharmaceutica) was added for determination of non-specific binding.
The [^3H]GR113808 assay buffer was 50 mM HEPES-NaOH, pH 7.4. The mixtures were incubated for 30 min at 25° C. The incubation was terminated by filtration over a Unifilter 96 GF/B presoaked in 0.1% polyethylenimine, followed by six washing steps with 50 mM HEPES-NaOH, pH 7.4.

T1 sequence (Q13639 whole entry): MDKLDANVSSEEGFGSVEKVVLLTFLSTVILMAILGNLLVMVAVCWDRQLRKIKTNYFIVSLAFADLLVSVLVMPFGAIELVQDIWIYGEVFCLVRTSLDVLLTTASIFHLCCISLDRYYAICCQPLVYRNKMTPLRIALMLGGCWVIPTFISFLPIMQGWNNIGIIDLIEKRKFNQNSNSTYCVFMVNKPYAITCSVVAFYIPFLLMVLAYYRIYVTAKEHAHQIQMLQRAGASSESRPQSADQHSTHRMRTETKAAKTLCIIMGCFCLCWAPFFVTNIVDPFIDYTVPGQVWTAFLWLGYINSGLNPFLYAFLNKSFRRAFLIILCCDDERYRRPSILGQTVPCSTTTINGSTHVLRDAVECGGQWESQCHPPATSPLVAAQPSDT

Structure (SMILES) | pIC50
COCCCN1CC[C@@H](CNC(=O)c2cc(Cl)c(Cl)c3c2OCCCO3)[C@H](O)C1 [compound 37] | 8.41
COCCCN1CC[C@@H](CNC(=O)c2cc(Cl)c(Br)c3c2OCCCO3)[C@H](O)C1 [compound 38] | 8.53
O=C(NC[C@@H]1CCN(CC2CCCO2)C[C@H]1O)c1cc(Cl)c(Br)c2c1OCCCO2 (stereo partly shown) [compound 39] | 8.41
CNCCCCN1CC[C@@H](CNC(=O)c2cc(Cl)c(OC)c3c2OCCCO3)[C@H](O)C1 [compound 40] | 7.85
COc1c(Cl)cc(C(=O)NC[C@@H]2CCN(CC3CCCO3)C[C@H]2OC)c2c1OCCO2 (stereo partly shown) [compound 41] | 7.79
CNCCN1CC[C@@H](CNC(=O)c2cc(Cl)c(Br)c3c2OCCCO3)[C@H](O)C1 [compound 42] | 7.56
CNCCCCN1CC[C@@H](CNC(=O)c2cc(Cl)c(OC)c3c2OCCO3)[C@H](O)C1 [compound 43] | 7.63
CNCCCN1CC[C@@H](CNC(=O)c2cc(Cl)c(OC)c3c2OCCO3)[C@H](O)C1 [compound 44] | 7.54
CO[C@@H]1CN(CCCO)CC[C@H]1CNC(=O)c1cc(Cl)c(Br)c2c1OCCCO2 [compound 45] | 8.13
CO[C@@H]1CN(CCC2OCCO2)CC[C@H]1CNC(=O)c1cc(Cl)c(Br)c2c1OCCCO2 [compound 46] | 8.22
CNCCN1CC[C@@H](CNC(=O)c2cc(Cl)c(Br)c3c2OCCCO3)[C@H](OC)C1 [compound 48] | 7.24
CO[C@@H]1CNCC[C@H]1CNC(=O)c1cc(Cl)c(Cl)c2c1OCCCO2 [compound 49] | 8.09
CO[C@@H]1CN(CC2CCCO2)CC[C@H]1CNC(=O)c1cc(Cl)c(Br)c2c1OCCCO2 (stereo partly shown) [compound 50] | 8.36
CO[C@@H]1CN(CCOCCO)CC[C@H]1CNC(=O)c1cc(Cl)c(Br)c2c1OCCCO2 [compound 51] | 8.29
COc1c(Cl)cc(C(=O)NC[C@@H]2CCNC[C@H]2OC)c2c1OCCO2 [compound 52] | 6.34
COc1c(Cl)cc(C(=O)NC[C@@H]2CCN(CCCO)C[C@H]2OC)c2c1OCCO2 [compound 53] | 7.70
COCCCN1CC[C@@H](CNC(=O)c2cc(Cl)c(Br)c3c2OCCCO3)[C@H](OC)C1 [compound 54] | 8.31
COc1c(Cl)cc(C(=O)NC[C@@H]2CCN(CCOCCO)C[C@H]2OC)c2c1OCCO2 [compound 55] | 6.78
CO[C@@H]1CN(CCCC#N)CC[C@H]1CNC(=O)c1cc(Cl)c(Cl)c2c1OCCCO2 [compound 56] | 8.41
COc1c(Cl)cc(C(=O)NC[C@@H]2CCN(CCCO)C[C@H]2OC)c2c1OCCCO2 [compound 57] | 7.44
CCCCN1CC[C@@H](CNC(=O)c2cc(Cl)c(Br)c3c2OCCCO3)[C@H](OC)C1 [compound 58] | 8.63
COCCCN1CC[C@@H](CNC(=O)c2cc(Cl)c(Cl)c3c2OCCCO3)[C@H](OC)C1 [compound 59] | 8.43
COc1c(Cl)cc(C(=O)NC[C@@H]2CCN(CCn3ccn(C(C)C)c3=O)C[C@H]2O)c2c1OCCO2 [compound 60] | 7.45
CNCCCCN1CC[C@@H](CNC(=O)c2cc(Cl)c(OC)c3c2OCCCO3)[C@H](OC)C1 [compound 61] | 7.07
CNCCCN1CC[C@@H](CNC(=O)c2cc(Cl)c(OC)c3c2OCCCO3)[C@H](OC)C1 [compound 62] | 6.31
CNCCCN1CC[C@@H](CNC(=O)c2cc(Cl)c(Br)c3c2OCCCO3)[C@H](OC)C1 [compound 63] | 8.01
CNCCCCN1CC[C@@H](CNC(=O)c2cc(Cl)c(Br)c3c2OCCCO3)[C@H](O)C1 [compound 64] | 8.81
CNCCCCN1CC[C@@H](CNC(=O)c2cc(Cl)c(Br)c3c2OCCCO3)[C@H](OC)C1 [compound 65] | 8.35

Structure (SMILES) | pIC50
COc1c(Cl)cc(C(=O)NC[C@@H]2CCN(CC3OCCO3)C[C@H]2OC)c2c1OCCCO2 [compound 66] | 6.88
COCCCN1CC[C@@H](CNC(=O)c2cc(Cl)c(OC)c3c2OCCCO3)[C@H](OC)C1 [compound 67] | 7.65
COc1c(Cl)cc(C(=O)NC[C@@H]2CCN(CCOCCO)C[C@H]2OC)c2c1OCCCO2 [compound 68] | 7.03
COc1c(Cl)cc(C(=O)NC[C@@H]2CCN(CCCC#N)C[C@H]2OC)c2c1OCCCO2 [compound 69] | 7.10
COc1c(Cl)cc(C(=O)NC[C@@H]2CCN(CCn3ccn(C(C)C)c3=O)C[C@H]2OC)c2c1OCCO2 [compound 70] | 6.58
CCCCN1CC[C@@H](CNC(=O)c2cc(Cl)c(OC)c3c2OCCCO3)[C@H](OC)C1 [compound 71] | 7.97
COc1c(Cl)cc(C(=O)NC[C@@H]2CCN(CCC3OCCO3)C[C@H]2OC)c2c1OCCCO2 [compound 72] | 7.67
COc1c(Cl)cc(C(=O)NC[C@@H]2CCN(CC3CCCO3)C[C@H]2OC)c2c1OCCCO2 (stereo partly shown) [compound 73] | 7.74
CNCCCN1CC[C@@H](CNC(=O)c2cc(Cl)c(Cl)c3c2OCCCO3)[C@H](OC)C1 [compound 74] | 8.27
CO[C@@H]1CN(CCCO)CC[C@H]1CNC(=O)c1cc(Cl)c(Cl)c2c1OCCCO2 [compound 75] | 8.51
COCCCN1CC[C@@H](CNC(=O)c2cc(Cl)c(OC)c3c2OCCO3)[C@H](OC)C1 [compound 76] | 7.66
CCCCN1CC[C@@H](CNC(=O)c2cc(Cl)c(OC)c3c2OCCO3)[C@H](OC)C1 [compound 77] | 8.05
CNCCCN1CC[C@@H](CNC(=O)c2cc(Cl)c(OC)c3c2OCCO3)[C@H](OC)C1 [compound 78] | 6.76
COc1c(Cl)cc(C(=O)NC[C@@H]2CCN(CCn3ccn(C(C)C)c3=O)C[C@H]2OC)c2c1OCCCO2 [compound 79] | 6.64
CNCCCN1CC[C@@H](CNC(=O)c2cc(Cl)c(Br)c3c2OCCCO3)[C@H](O)C1 [compound 80] | 8.20
CCCCN1CC[C@@H](CNC(=O)c2cc(Cl)c(Cl)c3c2OCCCO3)[C@H](OC)C1 [compound 81] | 8.68
CO[C@@H]1CN(CCn2ccn(C(C)C)c2=O)CC[C@H]1CNC(=O)c1cc(Cl)c(Cl)c2c1OCCCO2 [compound 82] | 8.08
CNCCN1CC[C@@H](CNC(=O)c2cc(Cl)c(OC)c3c2OCCO3)[C@H](O)C1 [compound 83] | 7.19
CNCCN1CC[C@@H](CNC(=O)c2cc(Cl)c(Cl)c3c2OCCCO3)[C@H](OC)C1 [compound 84] | 8.28
CNCCCN1CC[C@@H](CNC(=O)c2cc(Cl)c(Cl)c3c2OCCCO3)[C@H](O)C1 [compound 85] | 8.57
CNCCCCN1CC[C@@H](CNC(=O)c2cc(Cl)c(Cl)c3c2OCCCO3)[C@H](OC)C1 [compound 86] | 9.04
COc1c(Cl)cc(C(=O)NC[C@@H]2CCN(CCC3OCCO3)C[C@H]2OC)c2c1OCCO2 [compound 87] | 7.51
O=C(NC[C@@H]1CCN(CCC2OCCO2)C[C@H]1O)c1cc(Cl)c(Cl)c2c1OCCCO2 [compound 88] | 8.65
N#CCCCN1CC[C@@H](CNC(=O)c2cc(Cl)c(Cl)c3c2OCCCO3)[C@H](O)C1 [compound 89] | 8.68
CNCCCCN1CC[C@@H](CNC(=O)c2cc(Cl)c(Cl)c3c2OCCCO3)[C@H](O)C1 [compound 90] | 8.69
CC(C)n1ccn(CCN2CC[C@@H](CNC(=O)c3cc(Cl)c(Br)c4c3OCCCO4)[C@H](O)C2)c1=O [compound 91] | 7.87
CNCCN1CC[C@@H](CNC(=O)c2cc(Cl)c(OC)c3c2OCCO3)[C@H](OC)C1 [compound 92] | 6.31
